Experiments:
[1] = system: leukotriene D4 (LTD4); assay: Antagonistic effect to LTD4: contraction of isolated guinea pig tracheal strips; type: cell-based, Hartley male guinea pigs; conditions: Cavia porcellus, in vitro, LTD4 10^-8 M, Tyrode solution 37° C.
Experimental: (§1) The in vitro IC50 value of the antagonistic effect of the compounds of the present invention to TXA2 and LTD4 was obtained, using the following test system. Tracheal strips isolated from Hartley male guinea pigs (weight: 300 to 500 g) were suspended under a tension of 0.3 g in a Tyrode solution at 37° C. in an organ bath, to which a mixed gas of oxygen (95%)-carbon dioxide (5%) was introduced. After letting the above stabilize for about one hour, TXA2 (produced by Cayman Co.) or LTD4 (produced by Wako Pure Chemicals CO.) was added to the organ bath in a concentration-of 10^-7 M and 10^-8 M respectively, whereupon the contraction of the sections was measured as a standard. The strips were treated with various amounts of the compounds of Examples 1-8, whereupon the contraction of the tracheal preparations upon dosing with TXA2 or LTDS4 was again measured. From the values thus measured, the IC50 (Inhibition concentration) of the compound added was calculated. The results are shown in Table 1 below; the smaller the amount of the compound, the stronger its effectiveness.

[2] = system: thromboxane A2 (TXA2); assay: Antagonistic effect to TXA2: contraction of isolated guinea pig tracheal strips; type: cell-based, Hartley male guinea pigs; conditions: Cavia porcellus, in vitro, TXA2 10^-7 M, Tyrode solution 37° C.
Experimental: as §1

| Compound | IC50 [1] [nM] | IC50 [2] [nM] |
| --- | --- | --- |
| O=C(O)COc1ccc(CCNS(=O)(=O)c2ccc(Cl)cc2)cc1NC(=O)c1cccc(OCc2ccc3ccccc3n2)c1 [Example 1, 4-[2-(4-chlorobenzenesulfonamido)ethyl]-2-[3-(2-quinolinemethoxy)benzoylamino]phenoxyacetic acid] | 65 | 4.2 |
| O=C(O)COc1ccc(CCNS(=O)(=O)c2ccccc2)cc1NC(=O)c1cccc(OCc2ccc3ccccc3n2)c1 [Example 2, 4-[2-(benzenesulfonylamino)ethyl]-2-[3-(2-quinolinemethoxy)benzoylamino]phenoxyacetic acid] | 38 | 3.4 |
| O=C(O)COc1ccc(CCNS(=O)(=O)c2ccc(Cl)cc2)c(OCc2ccc3ccccc3n2)c1 [Example 3, 4-[2-(4-chlorobenzenesulfonamido)ethyl]-3-(2-quinolinemethoxy)phenoxyacetic acid] | 8300 | 3.5 |
| O=C(O)COc1ccc(CCNS(=O)(=O)c2ccc(Cl)cc2)c(OCc2cccc(OCc3ccc4ccccc4n3)c2)c1 [Example 4, 4-[2-(4-chlorobenzenesulfonamido)ethyl]-3-(3-(2-quinolinemethoxy)benzyloxy]phenoxyacetic acid] | 210 | 590 |
| O=C(O)COc1ccc(CCNS(=O)(=O)c2ccc(Cl)cc2)cc1NC(=S)Nc1cccc(OCc2ccc3ccccc3n2)c1 [Example 5, 4-[2-(4-chlorobenzenesulfonamido)ethyl]-2-{3-[3-(2-quinolinemethoxy)phenyl]thioureido}phenoxyacetic acid] | 72 | 25 |
| CCCc1c(OCCCC(=O)Nc2cc(CCNS(=O)(=O)c3ccc(Cl)cc3)ccc2OCC(=O)O)ccc(C(C)=O)c1O [Example 6, 4-[2-(4-chlorobenzenesulfonamido)ethyl]-2-[(4-acetyl-3-hydroxy-2-propyl)phenoxy-4-butamido]phenoxyacetic acid] | 160 | 8.2 |
| CCCc1c(OCCCCC(=O)Nc2cc(CCNS(=O)(=O)c3ccc(Cl)cc3)ccc2OCC(=O)O)ccc(C(C)=O)c1O [Example 7, 4-[2-(4-chlorobenzenesulfonamido)ethyl]-2-[(4-acetyl-3-hydroxy-2-propyl)phenoxy-5-pentamido]phenoxyacetic acid] | 76 | 19 |
| CCCc1c(OCCCCCC(=O)Nc2cc(CCNS(=O)(=O)c3ccc(Cl)cc3)ccc2OCC(=O)O)ccc(C(C)=O)c1O [Example 8, 4-[2-(4-chlorobenzenesulfonamido)ethyl]-2-[(4-acetyl-3-hydroxy-2-propyl)phenoxy-6-hexamido]phenoxyacetic acid] | 260 | 40 |
